The subject of one series is Trypanosoma brucei. Kind of series: Antiparasitic activity against Trypanosoma brucei infected in rat L6 cells. The series is classed as functional.
In series [1] the target is T1, Arabinose 5-phosphate isomerase KdsD (Francisella tularensis subsp. tularensis (strain SCHU S4 / Schu 4), UniProt Q5NGP7).
T1 sequence (Q5NGP7 whole entry): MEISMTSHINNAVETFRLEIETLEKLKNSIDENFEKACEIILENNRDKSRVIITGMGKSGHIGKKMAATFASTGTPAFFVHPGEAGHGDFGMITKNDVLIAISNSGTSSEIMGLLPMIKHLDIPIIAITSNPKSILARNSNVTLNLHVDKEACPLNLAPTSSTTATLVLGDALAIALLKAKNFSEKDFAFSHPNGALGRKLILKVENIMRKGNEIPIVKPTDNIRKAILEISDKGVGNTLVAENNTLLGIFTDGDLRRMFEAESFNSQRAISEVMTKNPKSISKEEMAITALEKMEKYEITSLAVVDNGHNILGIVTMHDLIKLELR

Another series relates to L6. Kind of series: Cytotoxicity against rat L6 cells. The format is cell-based.
Series [2] addresses T2, Ribose-5-phosphate isomerase B (Mycobacterium tuberculosis, UniProt P9WKD7).
T2 sequence (P9WKD7 whole entry): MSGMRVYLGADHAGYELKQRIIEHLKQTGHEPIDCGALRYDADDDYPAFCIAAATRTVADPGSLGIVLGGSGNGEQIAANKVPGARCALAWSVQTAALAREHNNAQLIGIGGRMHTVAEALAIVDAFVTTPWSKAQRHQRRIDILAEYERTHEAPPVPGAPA
Kind of series: Inhibition of Mycobacterium tuberculosis rpiB.

Series [3] can be described thus: Inhibition of Escherichia coli arabinose phosphate isomerase.
The nature of series [4]: Inhibition of xylose isomerase.
In series [5] the target is Glucose-6-phosphate isomerase (Oryctolagus cuniculus, UniProt Q9N1E2). Kind of series: Inhibition of rabbit cytosolic phosphoglucose isomerase.
Series [6] has as its target Triosephosphate isomerase (Homo sapiens, UniProt P60174). Kind of series: Inhibition of Triosephosphate isomerase.

Where “and” joins values, the source holds several entries; their conditions need not be identical. Equal values may be shown once. Bounds are passed on as bounds.

One may read the IC50 as the point on the concentration scale where inhibition reaches its midpoint. A lower IC50 goes with inhibition by little substance. The term Ki denotes a measure of affinity in units of concentration, obtained from inhibition or displacement.

Triosephosphate isomerase, sequence (P60174 whole entry): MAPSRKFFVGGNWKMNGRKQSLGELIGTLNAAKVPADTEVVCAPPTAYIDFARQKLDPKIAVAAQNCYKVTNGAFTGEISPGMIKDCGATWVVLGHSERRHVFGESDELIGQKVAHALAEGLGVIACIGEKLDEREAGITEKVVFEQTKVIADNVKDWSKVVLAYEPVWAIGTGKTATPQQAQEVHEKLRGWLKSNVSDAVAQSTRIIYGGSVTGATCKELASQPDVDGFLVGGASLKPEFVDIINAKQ

Turning to `CC(=O)O[C@H](COP(=O)(O)O)[C@@H](OC(C)=O)C(=O)NO`, the Activity in the series on Trypanosoma brucei and with L6 was 229 µM each time. The compound further showed a half-inhibitory concentration (IC50) in series [1] of 7 µM.
In the case of `O=C(NO)[C@H](O)[C@H](O)COP(=O)(O)O`, the IC50 in series [1] is 35 µM. Also, in series [2], the Ki was 400 µM and 57 µM.
As for `O=C(O)[C@H](O)[C@H](O)COP(=O)(O)O`, the IC50 in series [3] came out at 220 µM.
For `O=C(NO)[C@H](O)[C@H](O)CO`, in series [4], the Ki was determined as 0.1 µM.
In series [5], `O=C(NO)[C@@H](O)[C@H](O)[C@H](O)COP(=O)(O)O` gave a Ki of 0.1 µM.
`NC(=O)[C@H](O)[C@H](O)COP(=O)(O)O` displayed an IC50 in series [1] of 10 µM. Also, the Ki in series [2] is more than 30000 µM.
In series [1], `CC1(C)O[C@H](COP(=O)(O)O)[C@H](C(=O)NO)O1` came in with an IC50 of 3000 µM.
With `O=C(COP(=O)(O)O)NO` [PHOSPHOGLYCOLOHYDROXAMATE], in series [6], the affinity corresponds to a Ki of 4 µM.

Values taken from ChEMBL document CHEMBL1770054, “Enediol mimics as inhibitors of the D-arabinose 5-phosphate isomerase (KdsD) from Francisella tularensis” (Bioorg Med Chem Lett, 2011).
